In patent publication US20060293223A1 (Eli Lilly and Company Patent Division, priority 2003, published 2006):
Positions of bridges follow the written chain, without caps; N, C: chain ends. Non-standard residues stand in square brackets, D forms with d. hCys = N[C@@H](CCS)C(=O)O

system: MC1/MC4; conditions: ratio MC1/MC4
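Note: ratio of EC50 values obtained at MC1 versus MC4 receptors, with MC1 potency measured by luciferase reporter activity in stably transfected cells expressing human MC1.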

Row | Substance | MC1/MC4 selectivity
1 | Ac-Tyr-Arg-cyclo[Cys-Glu-His-D-Phe-Arg-Trp-Cys]-NH2 [Compound 72] | 22.31
2 | Ac-Tyr-Arg-cyclo[Cys-Glu-His-D-Phe-Arg-Trp-Cys]-NH-(CH2)6-NH2 [Compound 117] | 1.00
3 | Ac-Tyr-Arg-cyclo[Cys-Glu-His-D-Phe-Arg-Trp-Cys]-OH [Compound 73] | 12.77
4 | Ac-Tyr-Arg-cyclo[Cys-Glu-His-D-Phe-Arg-Trp-Cys]-Ser alcohol [Compound 116] | 4.00
5 | Ac-Tyr-Arg-cyclo[Cys-Glu-His-D-Phe-Arg-Trp-Cys]-Ser-Pro alcohol [Compound 120] | 1.00
6 | Ac-Tyr-Arg-cyclo[Cys-Glu-His-D-Phe-Arg-Trp-Cys]-glycinol [Compound 114] | 4.00
7 | Ac-Tyr-Arg-cyclo[Cys-Glu-His-D-Phe-Arg-Trp-hCys]-NH2 [Compound 192] | 1.00
8 | Ac-Tyr-Arg-cyclo[D-Cys-Glu-His-D-Phe-Arg-Trp-Cys]-NH2 [Compound 80] | 8.24
9 | Ac-Tyr-Arg-cyclo[hCys-Glu-His-D-Phe-Arg-Trp-Cys]-NH2 [Compound 166] | 9.38
10 | Ac-Tyr-Arg-cyclo[hCys-Glu-His-D-Phe-Arg-Trp-hCys]-NH2 [Compound 197] | 1.00
11 | Ac-Tyr-Cit-cyclo[Cys-Glu-(1-Me-His)-D-Phe-Arg-Trp-Cys]-NH2 [Compound 125] | 25.08
12 | Ac-Tyr-Cit-cyclo[Cys-Glu-His-D-Phe-Arg-Trp-Cys]-NH2 [Compound 124] | 18.11
13 | Ac-Tyr-D-Arg-cyclo[Cys-Glu-His-D-Phe-Arg-Trp-Cys]-NH2 [Compound 79] | 21.79
14 | Ac-Tyr-hArg-cyclo[Cys-Glu-His-D-Phe-Arg-Trp-Cys]-NH2 [Compound 126] | 22.64
15 | Ac-VCEH[dF]RWC-NH2 (disulfide 2-8) [Compound 63] | 30.51
16 | Ac-YKCEH[dF]RWC-NH2 (disulfide 3-9) [Compound 128] | 22.46
17 | Ac-YRCDH[dF]RWC-NH2 (disulfide 3-9) [Compound 7] | 15.00
18 | Ac-YRCEH[dF]RWCE-NH2 (disulfide 3-9) [Compound 118] | 4.52
19 | Ac-YRCEH[dF]RWCKP-NH2 (disulfide 3-9) [Compound 121] | 0.74
20 | Ac-YRCEH[dF]RWCRF-NH2 (disulfide 3-9) [Compound 123] | 2.42

Row | Substance | MC1/MC4 selectivity
21 | Ac-YRCEH[dF]RWCSP-NH2 (disulfide 3-9) [Compound 119] | 0.86
22 | Ac-YRCFH[dF]RWC-NH2 (disulfide 3-9) [Compound 19] | 7.64
23 | Ac-YRCGH[dF]RWC-NH2 (disulfide 3-9) [Compound 12] | 6.72
24 | Ac-YRCIH[dF]RWC-NH2 (disulfide 3-9) [Compound 14] | 12.54
25 | Ac-YRCMH[dF]RWC-NH2 (disulfide 3-9) [Compound 18] | 8.15
26 | Ac-YRCNH[dF]RWC-NH2 (disulfide 3-9) [Compound 5] | 5.00
27 | Ac-YRCPH[dF]RWC-NH2 (disulfide 3-9) [Compound 20] | 4.81
28 | Ac-YRCQH[dF]RWC-OH (disulfide 3-9) [Compound 9] | 10.00
29 | Ac-YRCQH[dF]RWC-OMe (disulfide 3-9) [Compound 10] | 9.50
30 | Ac-YRCRH[dF]RWC-NH2 (disulfide 3-9) [Compound 4] | 0.26
31 | Ac-YRCSH[dF]RWC-NH2 (disulfide 3-9) [Compound 21] | 10.27
32 | Ac-YRCTH[dF]RWC-NH2 (disulfide 3-9) [Compound 22] | 6.85
33 | Ac-YRCVH[dF]RWC-NH2 (disulfide 3-9) [Compound 25] | 11.00
34 | Ac-YRCWH[dF]RWC-NH2 (disulfide 3-9) [Compound 23] | 10.54
35 | Ac-YRCYH[dF]RWC-NH2 (disulfide 3-9) [Compound 24] | 8.00
36 | Ac-YR[hCys]H[dF]RWC-NH2 (disulfide 3-8) [Compound 164] | 7.79
37 | Ac-YR[hCys]H[dF]RWC-OH (disulfide 3-8) [Compound 165] | 13.53
38 | Ac-YR[hCys]H[dF]RW[hCys]-NH2 (disulfide 3-8) [Compound 196] | 4.98
39 | Ac-YSCEH[dF]RWC-NH2 (disulfide 3-9) [Compound 129] | 22.16
40 | Ac-YVCEH[dF]RWC-NH2 (disulfide 3-9) [Compound 130] | 26.88

Row | Substance | MC1/MC4 selectivity
41 | Ac-[hCys]H[dF]RW[hCys]-NH2 (disulfide 1-6) [Compound 193] | 26.59
42 | Ac-cyclo(S—CH2—S)[Cys-His-D-Phe-Arg-Trp-Cys]-NH2 [Compound 198] | 13.07
43 | Ac-cyclo[Cys-Glu-(1-Me-His)-D-Phe-Arg-Trp-Cys]-NH2 [Compound 34] | 11.52
44 | Ac-cyclo[Cys-Glu-His-(4-Br-D-Phe)-Arg-Trp-Cys]-NH2 [Compound 33] | 79.54
45 | Ac-cyclo[Cys-Glu-His-(4-Cl-D-Phe)-Arg-Trp-Cys]-NH2 [Compound 32] | 66.88
46 | Ac-cyclo[Cys-Glu-His-(4-F-D-Phe)-Arg-Trp-Cys]-NH2 [Compound 31] | 57.02
47 | Ac-cyclo[Cys-His-(4-Cl-D-Phe)-Arg-Trp-hCys]-NH2 [Compound 185] | 269.59
48 | Ac-cyclo[Cys-His-D-Phe-Arg-Trp-hCys]-NH2 [Compound 183] | 53.39
49 | Ac-cyclo[hCys-His-(4-Cl-D-Phe)-Arg-Trp-Cys]-NH2 [Compound 140] | 128.15
50 | Ac-cyclo[hCys-His-(4-Cl-D-Phe)-Arg-Trp-penicillamine]-NH2 [Compound 169] | 1804.00
51 | Ac-cyclo[hCys-His-(4-F-D-Phe)-Arg-Trp-Cys]-NH2 [Compound 139] | 44.29
52 | Ac-cyclo[hCys-His-(β-cyclohexyl-D-Ala)-Arg-Trp-Cys]-NH2 [Compound 167] | 3.36
53 | Ac-cyclo[hCys-His-D-Phe-Arg-Trp-Cys]-OH [Compound 138] | 38.81
54 | Ac-cyclo[hCys-His-D-Phe-Arg-Trp-penicillamine]-NH2 [Compound 168] | 212.71
55 | Ac-diaminobutyryl-cyclo[Cys-Glu-His-D-Phe-Arg-Trp-Cys]-NH2 [Compound 44] | 15.00
56 | Ac-diaminopropionyl-cyclo[Cys-Glu-His-D-Phe-Arg-Trp-Cys]-NH2 [Compound 43] | 11.00
57 | Ac-hArg-cyclo[Cys-Glu-His-D-Phe-Arg-Trp-Cys]-NH2 [Compound 54] | 20.85
58 | Ac-nLeu-cyclo[Cys-Glu-His-D-Phe-Arg-Trp-Cys]-NH2 [Compound 60] | 29.95
59 | Ac-nLeu-cyclo[Cys-Glu-His-D-Phe-Arg-Trp-Cys]-Ser-Pro-NH2 [Compound 61] | 1.70
60 | Ac-nLeu-cyclo[hCys-His-D-Phe-Arg-Trp-Cys]-NH2 [Compound 160] | 0.90
